# Test results taken from patent US9889182B2, “Assisted enzyme replacement therapy” (The Regents of the University of California, priority 2009, dated 2018).
# Marks after values point to notes of the source that are not given here.
# Tests used:
# 10T1/2 cells = assay: FACS cellular uptake of BODIPY conjugates in 10T1/2 cells; format: cell-based, mouse; details: for Mean Fluorescence Intensity of treated cells according to FACS, 10T1/2: 0.5 μM of each compound for 1 hr, average of 10,000 cells; for cellular uptake / cellular uptake compared to poly-Arg peptide BODIPY-Cys(Arg)9: FACS; for cellular uptake: slightly above autofluorescence of the cell; for cellular uptake compared to poly-Arg peptide BODIPY-Cys(Arg)9: Table 1
# Procedure: (§1) 10T1/2 cells, an adherent non-transformed mouse fibroblast cell line, and HeLa cells, a common human cancer cell line, were purchased from ATCC and used before their 20th passage. Both cell lines were cultured in Dulbecco's modified eagle medium containing 10% fetal bovine serum at 37° C. in an 8% CO2 environment. For each experiment, cells were seeded onto 4 cm tissue culture plates (Nunc) and allowed to grow overnight to ˜80% confluency.
# (§2) Compounds 1-5 identified in Table 1, below (0.5-1 μM), were added to each dish and incubated at 37° C./8% CO2 for 0.5-1 hr. Cells were then washed once in PBS, trypsinized with 500 μl ATV solution (Gibco) for 3 minutes, pelleted in a fixed angle centrifuge for 5 minutes at 5,000×G, then brought up in 1 mL PBS. Each sample was quickly (within 5 minutes) analyzed on a FACS VantageSE cell sorter (Becton-Dickinson) using the 488 nm argon/krypton laser line and a 530 nm band pass emission filter. 2,000-10,000 cells were counted per sample.
# HeLa cells = assay: FACS cellular uptake of BODIPY conjugates in HeLa cells; format: cell-based, human; details: 1 μM of each compound for 0.5 hr; average of 2,000 cells; about 10-fold higher instrumental gain than 10T1/2
# Procedure: as §1, §2
# WT CHO-K1 cells = assay: Competition of guanidinoneomycin construct uptake by model glycans; format: cell-based, Chinese hamster
# Wild-type CHO cells = assay: Live-cell uptake of fluorescent guanidinoneomycin conjugate (streptavidin-Alexa-488), microscopy; format: cell-based, Chinese hamster; details: 0.4 M sucrose; 5 mM amiloride
# Procedure: Microscopy—Cells were cultured on Lab-Tek chambered coverglass slides (Electron Microscopy Sciences) in F12 medium. After washing with PBS, cells were incubated for 1 h in 1 ml of 60 nM guanidinoneomycin coupled to streptavidin-Alexa-488 (Molecular Probes) at 37° C. Guanidinoneomycin-A488 was prepared by incubating 1 μM guanidinoneomycinbiotin with 6 μg of streptavidin-Alexa-488 in 1 ml of medium. Hoechst 33342 (2 μg/ml; Molecular Probes) was added to cells for the last 20 min of incubation. Cells were washed three times with F12 medium before live cell imaging. Microscopic images were acquired on an Olympus IX70 DeltaVision Spectris Image Deconvolution system, equipped with a temperature and atmospherically controlled stage. Images were deconvolved (10 cycles) using SoftWoRx Explorer Suite software.
# MPS VII fibroblasts = assay: [35S]glycosaminoglycan turnover, label-chase, MPS VII fibroblasts; format: cell-based, human; details: enzyme 2 hours, chase 24 hours
# Procedure: To test whether internalized GUS was functionally localized in lysosomes, a label-chase format was used in which cells were incubated with ^35S-labeled sulfate for 24 hours to radiolabel the sulfated glycosaminoglycans. The medium was changed, and after 24 hours, the amount of [^35S]glycosaminoglycans that remained associated with the cells was quantitated. Normal and MPS fibroblasts were incubated in DMEM/F12 medium supplemented with 10% dialyzed fetal bovine serum in order to increase the radiospecific activity of added ^35S4. Cells were seeded in a 12-well plate, and at confluence, 50 μCi of Na[^35S]O4 (PerkinElmer) was added in 1 ml of fresh medium. After 24 hours, the cells were rinsed twice with PBS, exposed to GUS or α-iduronidase for 2 hours, rinsed twice, and then chased for 24 hours in complete growth medium. The cells were harvested with trypsin, centrifuged (500 g, 5 minutes), and washed once. The sedimented cells were then resuspended in 100 μl of RIPA buffer (Sigma) and counted by liquid scintillation spectrometry using Scintillator Ultima Gold XR (PerkinElmer).
molecule,measurement,setting,value
tobra-BODIPY [Tobra-BODIPY (1)],"Mean Fluorescence Intensity of treated cells according to FACS, 10T1/2",10T1/2 cells,60
same,cellular uptake,10T1/2 cells,poor cellular uptakes
same,"Mean Fluorescence Intensity of treated cells according to FACS, HeLa",HeLa cells,"1,000"
"dermatan sulfate [Dermatan sulfate, DS (G)]",inhibition of cellular uptake of either construct (words),WT CHO-K1 cells; listed as Dermatan sulfate,failed to inhibit
same,inhibition of cellular uptake of either construct (words),WT CHO-K1 cells; listed as dermatan sulfate,no significant inhibition
OC[C@H]1O[C@@](CO)(O[C@H]2O[C@H](CO)[C@@H](O)[C@H](O)[C@H]2O)[C@@H](O)[C@@H]1O [sucrose],effect on internalization of fluorescent guanidinoneomycin conjugate,Wild-type CHO cells,marked decrease in internalization
N=C(N)NC(=O)c1nc(Cl)c(N)nc1N [amiloride],effect on internalization of fluorescent guanidinoneomycin conjugate,Wild-type CHO cells,no effect
"BODIPY-Cys(Arg)9 (CRRRRRRRRR; N-acetyl, C-amide, BODIPY label on Cys) [BODIPY-Cys (Arg)9 (5), common poly-Arg transduction peptide, reference compound]","Mean Fluorescence Intensity, 10T1/2, in presence of 10 μM (6)","10T1/2 cells; 0.5 μM BODIPY-Cys(Arg)9 + 10 μM guanidine-neomycin B (6), 1 hr",110
same,"Mean Fluorescence Intensity, 10T1/2, in presence of 50 μM (6)","10T1/2 cells; 0.5 μM BODIPY-Cys(Arg)9 + 50 μM guanidine-neomycin B (6), 1 hr",90
same,"Mean Fluorescence Intensity, 10T1/2, in presence of 200 μM (6)","10T1/2 cells; 0.5 μM BODIPY-Cys(Arg)9 + 200 μM guanidine-neomycin B (6), 1 hr",70
same,"Mean Fluorescence Intensity of treated cells according to FACS, 10T1/2",10T1/2 cells,280
same,"Mean Fluorescence Intensity of treated cells according to FACS, HeLa",HeLa cells,"2,000"
"NC[C@H]1O[C@H](O[C@H]2[C@H](O)[C@@H](O[C@H]3O[C@H](CO)[C@@H](O)[C@H](N)[C@H]3O)[C@H](N)C[C@@H]2N)[C@H](N)C[C@@H]1O [tobramycin, reference compound]",enhancement of cellular uptake upon guanidinylation,"10T1/2 cells; relative to autofluorescence, BODIPY conjugates, FIG. 3 and Table 1",approximately 10 fold
guanidino-Neo-BODIPY [Guanidino-Neo-BODIPY (4)],"Mean Fluorescence Intensity of treated cells according to FACS, 10T1/2",10T1/2 cells,430
same,cellular uptake compared to poly-Arg peptide BODIPY-Cys(Arg)9,10T1/2 cells,better cellular uptake
same,"Mean Fluorescence Intensity of treated cells according to FACS, HeLa",HeLa cells,"7,900"
guanidino-tobra-BODIPY [Guanidino-Tobra-BODIPY (2)],"Mean Fluorescence Intensity of treated cells according to FACS, 10T1/2",10T1/2 cells,240
same,cellular uptake compared to poly-Arg peptide BODIPY-Cys(Arg)9,10T1/2 cells,approximately the same transport efficiency
same,"Mean Fluorescence Intensity of treated cells according to FACS, HeLa",HeLa cells,"2,100"
neo-BODIPY [Neo-BODIPY (3)],"Mean Fluorescence Intensity of treated cells according to FACS, 10T1/2",10T1/2 cells,60
same,cellular uptake,10T1/2 cells,poor cellular uptakes
same,"Mean Fluorescence Intensity of treated cells according to FACS, HeLa",HeLa cells,"~1,400^(e)"
"AP-hGUS: hGUS treated with alkaline phosphatase (protein, UniProt P08236 23-651, looked up, dephosphorylated by alkaline phosphatase) Beta-glucuronidase: LQGGMLYPQESPSRECKELDGLWSFRADFSDNRRRGFEEQWYRRPLWESGPTVDMPVPSSFNDISQDWRLRHFVGWVWYEREVILPERWTQDLRTRVVLRIGSAHSYAIVWVNGVDTLEHEGGYLPFEADISNLVQVGPLPSRLRITIAINNTLTPTTLPPGTIQYLTDTSKYPKGYFVQNTYFDFFNYAGLQRSVLLYTTPTTYIDDITVTTSVEQDSGLVNYQISVKGSNLFKLEVRLLDAENKVVANGTGTQGQLKVPGVSLWWPYLMHERPAYLYSLEVQLTAQTSLGPVSDFYTLPVGIRTVAVTKSQFLINGKPFYFHGVNKHEDADIRGKGFDWPLLVKDFNLLRWLGANAFRTSHYPYAEEVMQMCDRYGIVVIDECPGVGLALPQFFNNVSLHHHMQVMEEVVRRDKNHPAVVMWSVANEPASHLESAGYYLKMVIAHTKSLDPSRPVTFVSNSNYAADKGAPYVDVICLNSYYSWYHDYGHLELIQLQLATQFENWYKKYQKPIIQSEYGAETIAGFHQDPPLMFTEEYQKSLLEQYHLGLDQKRRKYVVGELIWNFADFMTEQSPTRVLGNKKGIFTRQRQPKSAAFLLRERYWKIANETRYPHSVAKSQCLENSLFT","ED50, [35S]glycosaminoglycan turnover",MPS VII fibroblasts,~300 mU
"GNeo-AP-hGUS: GNeo conjugate of alkaline phosphatase-treated hGUS (conjugate, UniProt P08236 23-651, looked up, GNeo conjugate, dephosphorylated) Beta-glucuronidase: LQGGMLYPQESPSRECKELDGLWSFRADFSDNRRRGFEEQWYRRPLWESGPTVDMPVPSSFNDISQDWRLRHFVGWVWYEREVILPERWTQDLRTRVVLRIGSAHSYAIVWVNGVDTLEHEGGYLPFEADISNLVQVGPLPSRLRITIAINNTLTPTTLPPGTIQYLTDTSKYPKGYFVQNTYFDFFNYAGLQRSVLLYTTPTTYIDDITVTTSVEQDSGLVNYQISVKGSNLFKLEVRLLDAENKVVANGTGTQGQLKVPGVSLWWPYLMHERPAYLYSLEVQLTAQTSLGPVSDFYTLPVGIRTVAVTKSQFLINGKPFYFHGVNKHEDADIRGKGFDWPLLVKDFNLLRWLGANAFRTSHYPYAEEVMQMCDRYGIVVIDECPGVGLALPQFFNNVSLHHHMQVMEEVVRRDKNHPAVVMWSVANEPASHLESAGYYLKMVIAHTKSLDPSRPVTFVSNSNYAADKGAPYVDVICLNSYYSWYHDYGHLELIQLQLATQFENWYKKYQKPIIQSEYGAETIAGFHQDPPLMFTEEYQKSLLEQYHLGLDQKRRKYVVGELIWNFADFMTEQSPTRVLGNKKGIFTRQRQPKSAAFLLRERYWKIANETRYPHSVAKSQCLENSLFT","ED50, [35S]glycosaminoglycan turnover",MPS VII fibroblasts,~10 mU
